According to BindingDB's records for doi:10.1021/ml300405d (Therachem Research Medilab (India), 2013):

biological target: Tyrosine-protein kinase SYK (Homo sapiens) (UniProt P43405); assay: Inhibition of human Gst-tagged Syk expressed in sf9 cells

| IC50 [nM] | Compound |
| --- | --- |
| 6150 | COc1ccc(Nc2nc(N3CCC(C(=O)Nc4ccc(C(=O)O)cc4)C3)nc3scnc23)nc1OC (stereo not drawn) |
| 71 | COc1ccc(Nc2nc(N3CCCC(C(=O)Nc4ccc(C(=O)O)c(O)c4)C3)nc3scnc23)cc1OC (stereo not drawn) |
| 71 | CNC(=O)c1ccc(NC(=O)c2cccc(-c3nc(Nc4ccc(OC)c(OC)c4)c4ncsc4n3)c2)cc1 |
